This note sets out measurements from ChEMBL document CHEMBL5625277, “Systematical mutational analysis of teriparatide on anti-osteoporosis activity by alanine scanning” (Bioorg Med Chem Lett, 2024).

The nature of this data set: Cytotoxicity in pre-osteoblasts (unknown origin) assessed as cell death upto 5 uM by CCK8 assay. Format: toxicity, cell-based. The note with it: pre-osteoblast.

Consider `CC[C@H](C)[C@H](NC(=O)[C@H](CCC(=O)O)NC(=O)[C@H](CO)NC(=O)[C@@H](NC(=O)[C@H](CO)NC(C)=O)C(C)C)C(=O)N[C@@H](CCC(N)=O)C(=O)N[C@@H](CC(C)C)C(=O)N[C@@H](CCSC)C(=O)N[C@@H](Cc1cnc[nH]1)C(=O)N[C@@H](CC(N)=O)C(=O)N[C@@H](CC(C)C)C(=O)NCC(=O)N[C@@H](CCCCN)C(=O)N[C@@H](Cc1cnc[nH]1)C(=O)N[C@@H](CC(C)C)C(=O)N[C@@H](CC(N)=O)C(=O)N[C@@H](CO)C(=O)N[C@@H](CCSC)C(=O)N[C@@H](CCC(=O)O)C(=O)N[C@@H](CCCNC(=N)N)C(=O)N[C@H](C(=O)N[C@@H](CCC(=O)O)C(=O)N[C@@H](Cc1c[nH]c2ccccc12)C(=O)N[C@@H](CC(C)C)C(=O)N[C@@H](CCCNC(=N)N)C(=O)N[C@@H](CCCCN)C(=O)N[C@@H](CCCCN)C(=O)N[C@@H](CC(C)C)C(=O)N[C@@H](CCC(N)=O)C(=O)N[C@@H](CC(=O)O)C(=O)N[C@H](C(=O)N[C@@H](Cc1cnc[nH]1)C(=O)N[C@@H](CC(N)=O)C(=O)N[C@@H](C)C(N)=O)C(C)C)C(C)C`, for which the Activity result is reported as “Non-Toxic”.

Take `CC[C@H](C)[C@H](NC(=O)[C@H](CCC(=O)O)NC(=O)[C@H](CO)NC(=O)[C@@H](NC(=O)[C@H](CO)NC(C)=O)C(C)C)C(=O)N[C@@H](CCC(N)=O)C(=O)N[C@@H](CC(C)C)C(=O)N[C@@H](CCSC)C(=O)N[C@@H](Cc1cnc[nH]1)C(=O)N[C@@H](CC(N)=O)C(=O)N[C@@H](CC(C)C)C(=O)NCC(=O)N[C@@H](CCCCN)C(=O)N[C@@H](Cc1cnc[nH]1)C(=O)N[C@@H](CC(C)C)C(=O)N[C@@H](CC(N)=O)C(=O)N[C@@H](CO)C(=O)N[C@@H](CCSC)C(=O)N[C@@H](CCC(=O)O)C(=O)N[C@@H](CCCNC(=N)N)C(=O)N[C@H](C(=O)N[C@@H](CCC(=O)O)C(=O)N[C@@H](Cc1c[nH]c2ccccc12)C(=O)N[C@@H](CC(C)C)C(=O)N[C@@H](CCCNC(=N)N)C(=O)N[C@@H](CCCCN)C(=O)N[C@@H](CCCCN)C(=O)N[C@@H](C)C(=O)N[C@@H](CCC(N)=O)C(=O)N[C@@H](CC(=O)O)C(=O)N[C@H](C(=O)N[C@@H](Cc1cnc[nH]1)C(=O)N[C@@H](CC(N)=O)C(=O)N[C@@H](Cc1ccccc1)C(N)=O)C(C)C)C(C)C`: the Activity result is recorded as “Non-Toxic”.

Regarding `CC[C@H](C)[C@H](NC(=O)[C@H](CCC(=O)O)NC(=O)[C@H](CO)NC(=O)[C@@H](NC(=O)[C@H](CO)NC(C)=O)C(C)C)C(=O)N[C@@H](CCC(N)=O)C(=O)N[C@@H](CC(C)C)C(=O)N[C@@H](CCSC)C(=O)N[C@@H](Cc1cnc[nH]1)C(=O)N[C@@H](CC(N)=O)C(=O)N[C@@H](CC(C)C)C(=O)NCC(=O)N[C@@H](CCCCN)C(=O)N[C@@H](Cc1cnc[nH]1)C(=O)N[C@@H](CC(C)C)C(=O)N[C@@H](CC(N)=O)C(=O)N[C@@H](CO)C(=O)N[C@@H](CCSC)C(=O)N[C@@H](CCC(=O)O)C(=O)N[C@@H](CCCNC(=N)N)C(=O)N[C@H](C(=O)N[C@@H](CCC(=O)O)C(=O)N[C@@H](Cc1c[nH]c2ccccc12)C(=O)N[C@@H](CC(C)C)C(=O)N[C@@H](CCCNC(=N)N)C(=O)N[C@@H](CCCCN)C(=O)N[C@@H](CCCCN)C(=O)N[C@@H](CC(C)C)C(=O)N[C@@H](CCC(N)=O)C(=O)N[C@@H](CC(=O)O)C(=O)N[C@@H](C)C(=O)N[C@@H](Cc1cnc[nH]1)C(=O)N[C@@H](CC(N)=O)C(=O)N[C@@H](Cc1ccccc1)C(N)=O)C(C)C`, the Activity result was “Non-Toxic”.

Regarding `CC[C@H](C)[C@H](NC(=O)[C@H](CCC(=O)O)NC(=O)[C@H](CO)NC(=O)[C@@H](NC(=O)[C@H](CO)NC(C)=O)C(C)C)C(=O)N[C@@H](CCC(N)=O)C(=O)N[C@@H](CC(C)C)C(=O)N[C@@H](CCSC)C(=O)N[C@@H](Cc1cnc[nH]1)C(=O)N[C@@H](CC(N)=O)C(=O)N[C@@H](CC(C)C)C(=O)NCC(=O)N[C@@H](CCCCN)C(=O)N[C@@H](Cc1cnc[nH]1)C(=O)N[C@@H](CC(C)C)C(=O)N[C@@H](CC(N)=O)C(=O)N[C@@H](CO)C(=O)N[C@@H](CCSC)C(=O)N[C@@H](CCC(=O)O)C(=O)N[C@@H](CCCNC(=N)N)C(=O)N[C@H](C(=O)N[C@@H](CCC(=O)O)C(=O)N[C@@H](Cc1c[nH]c2ccccc12)C(=O)N[C@@H](CC(C)C)C(=O)N[C@@H](CCCNC(=N)N)C(=O)N[C@@H](CCCCN)C(=O)N[C@@H](CCCCN)C(=O)N[C@@H](CC(C)C)C(=O)N[C@@H](C)C(=O)N[C@@H](CC(=O)O)C(=O)N[C@H](C(=O)N[C@@H](Cc1cnc[nH]1)C(=O)N[C@@H](CC(N)=O)C(=O)N[C@@H](Cc1ccccc1)C(N)=O)C(C)C)C(C)C`, the Activity entry is “Non-Toxic”.

For `CC[C@H](C)[C@H](NC(=O)[C@H](CCC(=O)O)NC(=O)[C@H](CO)NC(=O)[C@@H](NC(=O)[C@H](CO)NC(C)=O)C(C)C)C(=O)N[C@@H](CCC(N)=O)C(=O)N[C@@H](CC(C)C)C(=O)N[C@@H](CCSC)C(=O)N[C@@H](C)C(=O)N[C@@H](CC(N)=O)C(=O)N[C@@H](CC(C)C)C(=O)NCC(=O)N[C@@H](CCCCN)C(=O)N[C@@H](Cc1cnc[nH]1)C(=O)N[C@@H](CC(C)C)C(=O)N[C@@H](CC(N)=O)C(=O)N[C@@H](CO)C(=O)N[C@@H](CCSC)C(=O)N[C@@H](CCC(=O)O)C(=O)N[C@@H](CCCNC(=N)N)C(=O)N[C@H](C(=O)N[C@@H](CCC(=O)O)C(=O)N[C@@H](Cc1c[nH]c2ccccc12)C(=O)N[C@@H](CC(C)C)C(=O)N[C@@H](CCCNC(=N)N)C(=O)N[C@@H](CCCCN)C(=O)N[C@@H](CCCCN)C(=O)N[C@@H](CC(C)C)C(=O)N[C@@H](CCC(N)=O)C(=O)N[C@@H](CC(=O)O)C(=O)N[C@H](C(=O)N[C@@H](Cc1cnc[nH]1)C(=O)N[C@@H](CC(N)=O)C(=O)N[C@@H](Cc1ccccc1)C(N)=O)C(C)C)C(C)C`, the Activity entry is given as “Non-Toxic”.

`CC[C@H](C)[C@H](NC(=O)[C@H](CCC(=O)O)NC(=O)[C@H](CO)NC(=O)[C@@H](NC(=O)[C@H](CO)NC(C)=O)C(C)C)C(=O)N[C@@H](CCC(N)=O)C(=O)N[C@@H](CC(C)C)C(=O)N[C@@H](CCSC)C(=O)N[C@@H](Cc1cnc[nH]1)C(=O)N[C@@H](CC(N)=O)C(=O)N[C@@H](CC(C)C)C(=O)NCC(=O)N[C@@H](CCCCN)C(=O)N[C@@H](Cc1cnc[nH]1)C(=O)N[C@@H](CC(C)C)C(=O)N[C@@H](CC(N)=O)C(=O)N[C@@H](CO)C(=O)N[C@@H](C)C(=O)N[C@@H](CCC(=O)O)C(=O)N[C@@H](CCCNC(=N)N)C(=O)N[C@H](C(=O)N[C@@H](CCC(=O)O)C(=O)N[C@@H](Cc1c[nH]c2ccccc12)C(=O)N[C@@H](CC(C)C)C(=O)N[C@@H](CCCNC(=N)N)C(=O)N[C@@H](CCCCN)C(=O)N[C@@H](CCCCN)C(=O)N[C@@H](CC(C)C)C(=O)N[C@@H](CCC(N)=O)C(=O)N[C@@H](CC(=O)O)C(=O)N[C@H](C(=O)N[C@@H](Cc1cnc[nH]1)C(=O)N[C@@H](CC(N)=O)C(=O)N[C@@H](Cc1ccccc1)C(N)=O)C(C)C)C(C)C`: the Activity entry is on record as “Non-Toxic”.

As to `CC[C@H](C)[C@H](NC(=O)[C@H](CCC(=O)O)NC(=O)[C@H](CO)NC(=O)[C@@H](NC(=O)[C@H](CO)NC(C)=O)C(C)C)C(=O)N[C@@H](CCC(N)=O)C(=O)N[C@@H](CC(C)C)C(=O)N[C@@H](CCSC)C(=O)N[C@@H](Cc1cnc[nH]1)C(=O)N[C@@H](CC(N)=O)C(=O)N[C@@H](CC(C)C)C(=O)NCC(=O)N[C@@H](CCCCN)C(=O)N[C@@H](Cc1cnc[nH]1)C(=O)N[C@@H](C)C(=O)N[C@@H](CC(N)=O)C(=O)N[C@@H](CO)C(=O)N[C@@H](CCSC)C(=O)N[C@@H](CCC(=O)O)C(=O)N[C@@H](CCCNC(=N)N)C(=O)N[C@H](C(=O)N[C@@H](CCC(=O)O)C(=O)N[C@@H](Cc1c[nH]c2ccccc12)C(=O)N[C@@H](CC(C)C)C(=O)N[C@@H](CCCNC(=N)N)C(=O)N[C@@H](CCCCN)C(=O)N[C@@H](CCCCN)C(=O)N[C@@H](CC(C)C)C(=O)N[C@@H](CCC(N)=O)C(=O)N[C@@H](CC(=O)O)C(=O)N[C@H](C(=O)N[C@@H](Cc1cnc[nH]1)C(=O)N[C@@H](CC(N)=O)C(=O)N[C@@H](Cc1ccccc1)C(N)=O)C(C)C)C(C)C`, the Activity result is recorded as “Non-Toxic”.

Turning to `CC[C@H](C)[C@H](NC(=O)[C@H](CCC(=O)O)NC(=O)[C@H](CO)NC(=O)[C@H](C)NC(=O)[C@H](CO)NC(C)=O)C(=O)N[C@@H](CCC(N)=O)C(=O)N[C@@H](CC(C)C)C(=O)N[C@@H](CCSC)C(=O)N[C@@H](Cc1cnc[nH]1)C(=O)N[C@@H](CC(N)=O)C(=O)N[C@@H](CC(C)C)C(=O)NCC(=O)N[C@@H](CCCCN)C(=O)N[C@@H](Cc1cnc[nH]1)C(=O)N[C@@H](CC(C)C)C(=O)N[C@@H](CC(N)=O)C(=O)N[C@@H](CO)C(=O)N[C@@H](CCSC)C(=O)N[C@@H](CCC(=O)O)C(=O)N[C@@H](CCCNC(=N)N)C(=O)N[C@H](C(=O)N[C@@H](CCC(=O)O)C(=O)N[C@@H](Cc1c[nH]c2ccccc12)C(=O)N[C@@H](CC(C)C)C(=O)N[C@@H](CCCNC(=N)N)C(=O)N[C@@H](CCCCN)C(=O)N[C@@H](CCCCN)C(=O)N[C@@H](CC(C)C)C(=O)N[C@@H](CCC(N)=O)C(=O)N[C@@H](CC(=O)O)C(=O)N[C@H](C(=O)N[C@@H](Cc1cnc[nH]1)C(=O)N[C@@H](CC(N)=O)C(=O)N[C@@H](Cc1ccccc1)C(N)=O)C(C)C)C(C)C`, the Activity result was “Non-Toxic”.

For the molecule `CC[C@H](C)[C@H](NC(=O)[C@H](CCC(=O)O)NC(=O)[C@H](CO)NC(=O)[C@@H](NC(=O)[C@H](CO)NC(C)=O)C(C)C)C(=O)N[C@@H](CCC(N)=O)C(=O)N[C@@H](CC(C)C)C(=O)N[C@@H](CCSC)C(=O)N[C@@H](Cc1cnc[nH]1)C(=O)N[C@@H](CC(N)=O)C(=O)N[C@@H](CC(C)C)C(=O)NCC(=O)N[C@@H](CCCCN)C(=O)N[C@@H](Cc1cnc[nH]1)C(=O)N[C@@H](CC(C)C)C(=O)N[C@@H](CC(N)=O)C(=O)N[C@@H](CO)C(=O)N[C@@H](CCSC)C(=O)N[C@@H](CCC(=O)O)C(=O)N[C@@H](CCCNC(=N)N)C(=O)N[C@H](C(=O)N[C@@H](CCC(=O)O)C(=O)N[C@@H](Cc1c[nH]c2ccccc12)C(=O)N[C@@H](C)C(=O)N[C@@H](CCCNC(=N)N)C(=O)N[C@@H](CCCCN)C(=O)N[C@@H](CCCCN)C(=O)N[C@@H](CC(C)C)C(=O)N[C@@H](CCC(N)=O)C(=O)N[C@@H](CC(=O)O)C(=O)N[C@H](C(=O)N[C@@H](Cc1cnc[nH]1)C(=O)N[C@@H](CC(N)=O)C(=O)N[C@@H](Cc1ccccc1)C(N)=O)C(C)C)C(C)C`, the Activity result is listed as “Non-Toxic”.
